Test results: PMC4149317 (Acta biomaterialia, 2013)

Experiments:
VEGF (rhVEGF165) [1] = molecular target: T1, VEGF (rhVEGF165) (Homo sapiens, UniProt P15692); test: VEGF binding to PEG microspheres in serum-containing and albumin-only solutions; details: 0.4% peptide density, albumin-only solution (1.25 wt.% BSA in PBS); p < 0.05 (Fig. 2D)
T1 sequence (P15692 1-191 isoform P15692-4): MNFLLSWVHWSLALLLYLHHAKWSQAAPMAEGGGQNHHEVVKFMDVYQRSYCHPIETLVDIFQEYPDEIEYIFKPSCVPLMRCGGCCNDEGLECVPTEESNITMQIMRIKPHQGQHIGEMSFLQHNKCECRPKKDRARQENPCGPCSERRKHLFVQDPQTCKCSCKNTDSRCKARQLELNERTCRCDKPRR

[2] = ref [27], cited from earlier work
VEGF = details: soluble VBP vs soluble VBPWT; ref [27]; cited from earlier work
VEGF (rhVEGF165) [3] = molecular target: T1, VEGF (rhVEGF165); test: Heparin modulation of VEGF binding to microspheres
endothelial cells = details: VEGF supplement to endothelial cells; ref [30]; cited from earlier work

## CEFdAdYdLdIDFNWEYPASK [VBP]
VEGF (rhVEGF165) [1]
  KD, VBP-VEGF vs VBPWT-VEGF, albumin-only solution: exhibited a lower KD than VBPWT-VEGF
[2]; four D-substituted amino acids vs wild-type
  Stability against protease-mediated degradation: enhanced peptide stability against protease-mediated degradation
[2]; soluble VBP vs soluble VBPWT
  Serum stability of soluble peptide: higher than that of soluble VBPWT
VEGF
  VEGF binding affinity of soluble peptide: higher than that of soluble VBPWT

## heparin
VEGF (rhVEGF165) [3]; 10 µg ml^−1 UFH in albumin-containing solution, 1.6% peptide density (Fig. 3C)
  Effect of soluble heparin on specificity of VEGF binding: reduced non-specific binding of VEGF
VEGF (rhVEGF165) [3]; physiologic level of soluble heparin, UFH 10 µg ml^−1
  Effect of soluble heparin on VEGF binding affinity: increased VEGF binding affinity

## VEGF
Endothelial cells
  Endothelial proliferation below 1 ng ml^−1 VEGF: proliferation is decreased at VEGF concentrations below 1 ng ml^−1
  VEGF concentration of maximal endothelial proliferation: 1 to 1.2 ng/mL
